The numbers were not newly measured in publication PMC8089043 (Journal of controlled release : official journal of the …, 2021), which cites them from elsewhere.

Each structure is given as a SMILES string.

The conditions of data set [1]: rats, high doses.
For data set [2] the following is noted: in vivo.

Turning to `CC(C)=CCC[C@]1(C)C=Cc2c(O)c3c(c(CC=C(C)C)c2O1)O[C@]12C(=C[C@@H]4C[C@H]1C(C)(C)O[C@@]2(C/C=C(/C)C(=O)O)C4=O)C3=O` [GA, gambogic acid], the “dose exhibiting hepatic and renal toxicities” value in data set [1] was more than 120 mg/kg.
As to `O=c1oc2cc(O)ccc2c2ccc(O)cc12` [UA, urolithin A], in data set [2], the “safety of diets containing gram quantities” value is listed as “safe”.
